Data reported in US11071731B2, “Allosteric modulators of the mu opioid receptor” (Chiromics, LLC, priority 2017, dated 2021).
pEC50: −log10 of the molar value. Read-outs that look alike come from different tables or passages of the source.

Key:
[1] = target: T1, MOR (Homo sapiens, UniProt P35372); format: cell-based
[2] = target: T1, MOR; experiment: cell-based; details: EC20 Oxycodone agonism of MOR
[3] = target: T1, MOR; format: cell-based; details: cAMP; EC20 EM2 agonism of MOR
[4] = Plasma concentration time-course after SC or IP dosing; format: in vivo; details: 15 mg/kg, intraperitoneal or subcutaneous, CD-1 mice, blood samples
Protocol: To be useful as a therapeutic, a MOR PAM must not only be able to activate endogenous and non-endogenous orthosteric ligands of the MOR, it must also persist in the body in concentrations sufficient to exert its allosteric effect. To test intracorporeal persistence, murine models were chosen, based on the preponderance of data available linking endogenous opioids to analgesic mechanisms. Compound 9 (Table 10) was formulated for dosing in CD-1 mice. Two mice per group were tested and each group was administered 15 mg/kg of the compound. Concentrations of the compound were measured by mass spectrometry of blood samples.

[5] = Plasma, brain and spinal cord concentrations after subcutaneous dosing; format: in vivo; details: subcutaneous 15 mg/kg, ICR rats
Protocol: Concentrations of subcutaneously injected compound 9 in spinal tissue (where the DRG are located) were also assessed.

T1 sequence (P35372 whole entry): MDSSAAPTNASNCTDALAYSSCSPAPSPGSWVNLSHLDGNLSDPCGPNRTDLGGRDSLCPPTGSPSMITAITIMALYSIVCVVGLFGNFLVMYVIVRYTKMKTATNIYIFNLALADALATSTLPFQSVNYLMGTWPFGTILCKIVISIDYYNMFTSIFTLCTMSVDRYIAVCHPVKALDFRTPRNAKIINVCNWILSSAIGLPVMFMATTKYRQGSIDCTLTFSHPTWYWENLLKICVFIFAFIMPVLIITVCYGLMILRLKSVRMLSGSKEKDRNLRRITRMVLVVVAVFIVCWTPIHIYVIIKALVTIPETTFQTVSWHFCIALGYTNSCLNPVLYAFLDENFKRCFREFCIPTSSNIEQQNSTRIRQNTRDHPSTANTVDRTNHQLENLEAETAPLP

Compound: Fc1cnc(Cl)nc1N1CCCCC1c1cccc(C(F)(F)F)c1 (single isomer, unassigned) [compound 9]
- shift in the potency of EM1 ([1]; cAMP assay): concentration-dependent and saturable leftward shifts
- factor of increase of the affinity (α) of EM1 ([1]; cAMP signaling): 2
- factor of increase of the efficacy (β) of EM1 ([1]; cAMP signaling): 1.8
- effective potency for PAM effect ([1]; cAMP signaling, EM1): 0.044 µM
- pEC50 ([2]; RC50, cAMP): 5.50
- Max. Response ([2]; cAMP): 40
- Max. Response [3]: 80
- exposure and half-life [4]: exposures and an a half-life appropriate for in vivo studies
- exposure in spinal tissue and brain [5]: good exposures in spinal tissue
